Laboratory results from patent publication US11390648B2, “Peptide” (HYSENSBIO, priority 2017, dated 2022).

tested on: Dspp gene; assay: Dspp mRNA level in human dental pulp cells treated with peptide (real-time PCR); type: cell-based; details: hDPCs, peptide 10 μg/ml, 48 hours; ratio relative to Dspp mRNA level of untreated control; GAPDH internal control; triplicate
Experimental: Human dental pulp cells were separated from wisdom teeth of adults (aged 18-22) at the School of Dentistry, Seoul National University. In detail, all experiments were performed after the approval of the Institutional Review Board and the informed consent from patients. Wisdom teeth were fractured according to a method of Jung HS et al. (J Mol Histol.(2011)) to expose the dental pulps, and dental pulp tissues were separated with forceps. Each of the separated dental pulp tissues was cut into small pieces with a razor blade, put in a 60-mm dish, covered with a coverslip, and then cultured in a Dulbecco's modified Eagle's medium. It has been known that human dental pulp cells can differentiate into odontoblast, osteoblast, cementoblast, and periodontal ligament cells under various conditions (Tissue Eng Part A. 2014 April; 20 (7-8): 1342-51).
Total RNA was extracted from human dental pulp cells (hDPCs), and human bone marrow mesenchymal stem cells (hBMSCs) with TRIzol reagent. 2 μg of the total RNA, 1 μl of reverse transcriptase, and 0.5 μg of oligo (oligo; dT) were used to synthesize cDNA. The synthesized cDNA was used in a real-time polymerase chain reaction. The real-time polymerase chain reaction was performed on an ABI PRISM 7500 sequence detection system (Applied Biosystems) and an SYBR GREEN PCR Master Mix (Takara, Japan). The real-time polymerase chain reaction was performed under conditions of 94° C., 1 min; 95° C., 15 sec; 60° C., 34 sec for 40 cycles. Results were analyzed by a comparative cycle threshold (CT) method. And the used primers are as follows (Table 17).
The human dental pulp cells (hDPCs) cultured in Example 3 were treated with the peptides (concentration of 10 μg/ml) of each group synthesized in Example 1-1, and cultured for 48 hours. Then, mRNA levels of an odontoblast differentiation marker Dspp gene expressed in the human dental pulp cells were measured, and a ratio of the measured Dspp mRNA level relative to a Dspp mRNA level measured in a control group was calculated, respectively (Tables 18 to 33).
The expression level of the Dspp gene was measured through RT-PCR and real-time PCR analysis described in Example 1-4. In this regard, GAPDH gene was used as an internal control. The experiments were performed in triplicate, and then mean values and standard deviations thereof were taken as measured values. The base sequence of the primers is described in Table 17 above.

Substance | mRNA level of Dspp gene, Mean
1 (KYQRRKK; Novel peptide) [compound 1] | 7.371
2 (KYQRRKR; Novel peptide) [compound 2] | 7.171
3 (KYQRRRK; Novel peptide) [compound 3] | 6.512
4 (KYQRRRR; Novel peptide) [compound 4] | 7.071
5 (KYQRKKK; Novel peptide) [compound 5] | 6.893
6 (KYQRKRK; Novel peptide) [compound 6] | 6.931
7 (KYQRKKR; Novel peptide) [compound 7] | 6.881
8 (KYQRKRR; Novel peptide) [compound 8] | 6.531
9 (KYRQRKK; Novel peptide) [compound 9] | 7.543
10 (KYRQRKR; Novel peptide) [compound 10] | 6.996
11 (KYRQRRK; Novel peptide) [compound 11] | 7.385
12 (KYRQRRR; Novel peptide) [compound 12] | 7.548
13 (KYRQKKK; Novel peptide) [compound 13] | 6.655
14 (KYRQKRK; Novel peptide) [compound 14] | 6.839
15 (KYRQKKR; Novel peptide) [compound 15] | 6.764
16 (KYRQKRR; Novel peptide) [compound 16] | 7.739
17 (KYKQRKK; Novel peptide) [compound 17] | 7.712
18 (KYKQRKR; Novel peptide) [compound 18] | 7.319
19 (KYKQRRK; Novel peptide) [compound 19] | 7.931
20 (KYKQRRR; Novel peptide) [compound 20] | 7.553
21 (KYKQKKK; Novel peptide) [compound 21] | 7.893
22 (KYKQKRK; Novel peptide) [compound 22] | 7.412

Substance | mRNA level of Dspp gene, Mean
23 (KYKQKKR; Novel peptide) [compound 23] | 9.171
24 (KYKQKRR; Novel peptide) [compound 24] | 8.512
25 (KYQQRKK; Novel peptide) [compound 25] | 2.491
26 (KYQQRKR; Novel peptide) [compound 26] | 2.623
27 (KYQQRRK; Novel peptide) [compound 27] | 2.213
28 (KYQQRRR; Novel peptide) [compound 28] | 2.781
29 (KYQQKKK; Novel peptide) [compound 29] | 2.926
30 (KYQQKRK; Novel peptide) [compound 30] | 2.011
31 (KYQQKKR; Novel peptide) [compound 31] | 2.432
32 (KYQQKRR; Novel peptide) [compound 32] | 2.303
33 (KYRRRKK; Novel peptide) [compound 33] | 3.615
34 (KYRRRKR; Novel peptide) [compound 34] | 3.727
35 (KYRRRRK; Novel peptide) [compound 35] | 3.017
36 (KYRRRRR; Novel peptide) [compound 36] | 3.256
37 (KYRRKKK; Novel peptide) [compound 37] | 3.303
38 (KYRRKRK; Novel peptide) [compound 38] | 2.099
39 (KYRRKKR; Novel peptide) [compound 39] | 3.412
40 (KYRRKRR; Novel peptide) [compound 40] | 3.109
41 (KYKRRKK; Novel peptide) [compound 41] | 2.937
42 (KYKRRKR; Novel peptide) [compound 42] | 2.808
43 (KYKRRRK; Novel peptide) [compound 43] | 2.435
44 (KYKRRRR; Novel peptide) [compound 44] | 2.517

Substance | mRNA level of Dspp gene, Mean
45 (KYKRKKK; Novel peptide) [compound 45] | 3.051
46 (KYKRKRK; Novel peptide) [compound 46] | 2.733
47 (KYKRKKR; Novel peptide) [compound 47] | 2.439
48 (KYKRKRR; Novel peptide) [compound 48] | 2.602
49 (KYQKRKK; Novel peptide) [compound 49] | 1.631
50 (KYQKRKR; Novel peptide) [compound 50] | 1.803
51 (KYQKRRK; Novel peptide) [compound 51] | 1.569
52 (KYQKRRR; Novel peptide) [compound 52] | 1.949
53 (KYQKKKK; Novel peptide) [compound 53] | 1.422
54 (KYQKKRK; Novel peptide) [compound 54] | 1.638
55 (KYQKKKR; Novel peptide) [compound 55] | 2
56 (KYQKKRR; Novel peptide) [compound 56] | 1.909
57 (KYNKRKK; Novel peptide) [compound 57] | 2.415
58 (KYNKRKR; Novel peptide) [compound 58] | 2.677
59 (KYNKRRK; Novel peptide) [compound 59] | 2.463
60 (KYNKRRR; Novel peptide) [compound 60] | 2.089
61 (KYNKKKK; Novel peptide) [compound 61] | 1.909
62 (KYNKKRK; Novel peptide) [compound 62] | 2.752
63 (KYNKKKR; Novel peptide) [compound 63] | 2.373
64 (KYNKKRR; Novel peptide) [compound 64] | 1.829
65 (KYNRRKK; Novel peptide) [compound 65] | 2.201
66 (KYNRRKR; Novel peptide) [compound 66] | 2.072

Substance | mRNA level of Dspp gene, Mean
67 (KYNRRRK; Novel peptide) [compound 67] | 2.452
68 (KYNRRRR; Novel peptide) [compound 68] | 2.343
69 (KYNRKKK; Novel peptide) [compound 69] | 1.899
70 (KYNRKRK; Novel peptide) [compound 70] | 1.947
71 (KYNRKKR; Novel peptide) [compound 71] | 2.052
72 (KYNRKRR; Novel peptide) [compound 72] | 1.739
73 (KYRNRKK; Novel peptide) [compound 73] | 2.208
74 (KYRNRKR; Novel peptide) [compound 74] | 2.105
75 (KYRNRRK; Novel peptide) [compound 75] | 2.624
76 (KYRNRRR; Novel peptide) [compound 76] | 2.394
77 (KYRNKKK; Novel peptide) [compound 77] | 1.939
78 (KYRNKRK; Novel peptide) [compound 78] | 2.109
79 (KYRNKKR; Novel peptide) [compound 79] | 2.403
80 (KYRNKRR; Novel peptide) [compound 80] | 2.636
81 (KYKNRKK; Novel peptide) [compound 81] | 1.757
82 (KYKNRKR; Novel peptide) [compound 82] | 1.909
83 (KYKNRRK; Novel peptide) [compound 83] | 2.001
84 (KYKNRRR; Novel peptide) [compound 84] | 2.101
85 (KYKNKKK; Novel peptide) [compound 85] | 1.838
86 (KYKNKRK; Novel peptide) [compound 86] | 1.736
